Laboratory results from paper PMC8470881, “Membrane Interactions of Latarcins: Antimicrobial Peptides from Spider Venom” (International Journal of Molecular Sciences, 2021).
No end group written: not given here.

Experiments:
[1] = test system: Bacillus subtilis subsp. spizizenii (DSM 347), Staphylococcus xylosus (DSM 20267), Escherichia coli (DSM 1116), Acinetobacter sp. (DSM 586); conditions: for MIC: irrespective of the bacterial strain (all four strains), Müller-Hinton medium, 20 h at 37 °C, maximum tested 256 µg/mL
Description: The effect of latarcins against four types of bacteria was determined using a minimum inhibitory concentration (MIC) assay on two Gram-positive strains (Bacillus subtilis subsp. spizizenii and Staphylococcus xylosus) and two Gram-negative strains (Escherichia coli and Acinetobacter sp.). Although the antimicrobial activity of latarcins is well documented, these experiments served to ensure that all studies were performed on molecules that show the expected antimicrobial activity.
The minimum inhibitory concentration (MIC) was determined as previously reported. For each latarcin, MIC was determined against two Gram-positive strains, namely Bacillus subtilis subsp. spizizenii (DSM 347) and Staphylococcus xylosus (DSM 20267), and two Gram-negative strains: Escherichia coli (DSM 1116) and Acinetobacter sp. (DSM 586). Bacterial cultures were grown in Müller-Hinton medium (MHM) as described previously, and peptides were dissolved in sterile water containing 10% DMSO. The stock solution of peptides with 1024 µg/mL was prepared such that serial dilutions of peptides (from 256 µg/mL to 2 µg/mL) in MHM were prepared in 96-well plates with the penultimate column without peptide to act as positive control (no peptide) and the final column as negative control (no bacteria). Bacterial stock suspension was made with an OD of 0.2 units at 550 nm. This stock solution was further diluted (1:1000 for Gram-negative bacteria and 1:100 for Gram-positive bacteria), and subsequently, 50 µL of the resulting bacterial suspension was added to the wells except the final well to give a final concentration of 10^6 colony-forming units per mL. Afterwards, the 96-well plates were incubated at 37 °C for 20 h, and cellular respiration was detected by adding 20 µL of resazurin solution (200 µg/mL) for an additional 2 h at the same temperature.

human red blood cells = assay: Hemolysis assay; conditions: peptide concentration 128 µg/mL, 30 min, 37 °C
Description: A hemolysis assay was performed to determine the activity of latarcins against human red blood cells, allowing us to compare the results to those of previous experiments in which rabbit erythrocytes were used. The activity was determined for each latarcin as a function of increasing concentration, up to a maximum of 256 µg of peptides per mL. […] The percentage hemolysis of the other peptides was determined at the highest tested concentration of 256 µg/mL.
The influence of latarcins on human erythrocytes was determined by using a hemolysis assay modified from previously published methods. Blood was obtained from the blood bank of the local hospital in Karlsruhe and stabilized with citrate phosphate dextrose buffer. Erythrocyte suspension (5 mL) was taken up in Tris buffer (45 mL, 172 mM, pH 7.6) at room temperature, gently mixed, and centrifuged (1500 rpm, 10 min). The supernatant solution was removed, and Tris wash was repeated twice with 45 mL as above. The washed erythrocytes (1 mL) were suspended in 9 mL Tris buffer to make the stock cell suspension, which was then further diluted to 0.25% (v/v) at 37 °C before use. Peptide stock solutions were prepared with 1024 µg/mL in Tris buffer containing 10% DMSO, and serial dilutions were prepared in the range of 512 µg/mL to 2 µg/mL as described previously. For the positive control, Triton X-100 (200 µL of 0.2% v/v) was used, and as the negative control, Tris buffer (200 µL, 172 mM) was used. Erythrocyte stock cell suspension (200 µL) was added to each of the samples and incubated for 30 min at 37 °C with gentle shaking before determining the percentage of hemolysis as described previously.

[2] = Circular dichroism spectroscopy (secondary structure); assay type: physicochemical; conditions: CD in DMPC/DMPG (7/3) SUVs, P/L = 1:50, 10 mM phosphate buffer pH 7.0, 30 °C, peptide 29.3 μM; deconvolution with CDSSTR, CONTIN-LL, SELCON-3
Text: Next, we compared the secondary structure of the full set of latarcins in the presence of lipid membranes, for which there are no complete data available yet.
The CD line shapes (Figure 2) were deconvoluted to estimate the secondary structure contributions (Supplementary Table S1) using the CDSSTR, CONTIN-LL, and SELCON-3 algorithms provided on the DICHROWEB online server as described previously. […] In peptides containing a high proportion of aromatic residues, such shifts of the long-wavelength band are well documented.
Small unilamellar vesicles (SUVs) for the CD measurements were prepared as follows. Weighed amounts of the lipid powders (DMPC, DMPG) were dissolved in chloroform/methanol 1/1 (v/v) to obtain 5 mg/mL stock solutions. For obtaining mixed DMPC/DMPG liposomes (7/3 molar ratio), the appropriate aliquots of these stock solutions were pipetted in a glass vial and thoroughly vortexed. The organic solvents were removed under a gentle stream of nitrogen gas, followed by 3 h of vacuum pumping in an exsiccator at a reduced pressure of 3-4 mbars to remove solvent residuals from the lipid film that had formed in the vial. The lipid film was dispersed by the addition of 10 mM phosphate buffer (PB) pH 7.0 and homogenized by vigorously vortexing for 10 × 1 min and 10 freeze–thaw cycles. SUVs were formed by sonication of the obtained multilamellar vesicles for 16 min in a strong ultrasonic bath (UTR 200, Hielscher, Germany). The temperature of the water in the ultrasonic bath was adjusted to 35 °C by circulating it through a thermostat to avoid overheating the samples. A weighed amount of the corresponding peptide was dissolved in water resulting in stock solutions with a peptide concentration of 0.5 mg/mL. For the final CD samples, each peptide stock solution was diluted to 29.3 μM and the corresponding lipid dispersion to 1.47 mM in 10 mM PB, resulting in a peptide-to-lipid (P/L) ratio of 1/50.
[…] The samples were measured in a 1-millimeter path length quartz glass cell (Suprasil, Hellma Müllheim, Germany) between 260 and 185 nm at 0.5 nm intervals. Spectra of the liposome samples were recorded at 30 °C, i.e., well above the phase transition temperature of the lipids, using a water-thermostated rectangular cell holder. Three repeat scans at a scan rate of 10 nm min^−1, 8 s response time, and 1 nm bandwidth were averaged for each sample, and the baseline spectrum of the respective peptide-free sample was subtracted from the sample spectrum. CD spectra were smoothened by a Savitzky-Golay filter (convolution width of 15 data points), which is implemented in the Jasco Spectra Analysis software.

[3] = Oriented circular dichroism (helix alignment in membrane); assay type: physicochemical; conditions: DMPC/DMPG (7/3), P/L = 1:100, oriented hydrated bilayers, 30 °C
Description: This is the same lipid composition and peptide-to-lipid ratio as was used in conventional CD above (see Figure 2), but in contrast to the vesicular samples containing excess water, the oriented membranes for OCD are just about saturated with water.
The sign and intensity of the 208 nm band provide a characteristic signature of the helix tilt angle in the membrane [19]. For a helical peptide that lies flat on the bilayer surface, this band is the most intense.
To prepare oriented CD (OCD) samples, latarcins depending on their solubility were dissolved either in pure MeOH or CHCl3/MeOH 1/1 (v/v) and thoroughly mixed with appropriate aliquots of DMPC/DMPG solutions (7/3 molar ratio) in the same solvent. Each co-dissolved mixture with a peptide-to-lipid molar ratio of 1/100 was deposited on a quartz glass plate using a gas-tight syringe. To achieve a spot size of 12.5 mm on the 20 mm diameter plates (Suprasil QS, Hellma Optik GmbH, Jena, Germany), a volume of ~55–60 µL was used. The organic solvents were evaporated in a gentle stream of air until the sample appeared dry. The amounts of deposited lipid and peptide on the plate were always 0.29 μmole and 2.9 nmole, respectively. The peptide-lipid-film was further dried under reduced pressure for at least 3 h. Afterwards, each plate with the dried sample was fixed and sealed by a polymer O-ring in a cylindrical sample holder. The plate with the sample and a second window plate without the sample formed a compartment for controlled hydration. The holder was assembled in a custom-built hydration cell. In the inner compartment of the sample holder, the peptide-lipid film was hydrated for about 15 h at 30 °C and 97% relative humidity via the gas phase by a saturated K2SO4 solution contained in an adjacent cavity of the hydration cell. During hydration, the lipids spontaneously align as lipid bilayers that are macroscopically oriented perpendicular to the glass surface. For the measurement, the holder was transferred to an OCD sample cell that had been developed and built in-house [20]. It is computer-controlled and can be integrated into a Jasco spectropolarimeter as an accessory. The optical path runs along the cylindrical axis of the cell, i.e., normal to the quartz glass plate surface carrying the oriented lipid film. To reduce possible spectral artifacts caused by linear dichroism (LD) or linear birefringence (LB) due to imperfections in the sample, strain in the quartz glass or imperfect alignment of the windows, the OCD spectra were recorded in steps of 45° by rotation of the cell around the beam axis [19, 20]. At each angle, two scans were recorded from 260–185 nm as an average, using a scan rate of 20 nm min^−1, 4 s response time, and 1 nm bandwidth.

[4] = Solid-state 15N-NMR (helix alignment in membrane); assay type: physicochemical; conditions: DMPC/DMPG (7/3), P/L = 1:100, oriented samples, solid-state 15N-NMR, 308 K
Description: While OCD provides a rough picture of the peptide alignment, the helix tilt angle can be measured rather precisely by solid-state NMR using the same type of oriented membrane sample. […] If the peptides are not helical, then the orientation cannot be determined from these ^15N-NMR spectra (which is why CD/OCD need to be performed first), but other information may be available. Oriented NMR samples were prepared at a P/L of 1/100 in DMPC/DMPG (7/3), as for CD/OCD. The ^15N-NMR spectra of all latarcins are summarized in Figure 7, along with the corresponding ^31P-NMR spectra of the phospholipid component. […] This conclusion is supported by the vesicle leakage data above.
Ltc2a, with a chemical shift of 131 ppm, on the other hand, is distinctly tilted in the membrane, as was also observed in the OCD experiments. […] Ltc3a, with a chemical shift of 93 ppm, is tilted only slightly by 10–20°. […] Given that OCD had shown distinct signs of aggregation into β-sheets, we can conclude that Ltc6a binds to the membrane and perturbs the lipid bilayer, but it is not possible to determine the molecular alignment of Ltc6a when it has most likely formed aggregates.
Macroscopically oriented NMR samples were prepared by co-dissolving appropriate amounts of peptides and lipids (in 300 μL methanol, 100 μL CHCl3, and 10–20 μL Milli-Q water) and spreading them onto 23 thin glass plates of dimensions 9 mm × 7.5 mm × 0.08 mm (Marienfeld Laboratory Glassware, Lauda-Königshofen, Germany). The peptide-to-lipid ratio (P/L) is given in mol/mol. The plates were dried in air for 1 h, followed by drying under vacuum overnight. The plates were stacked and placed into a hydration chamber with 96% relative humidity at 48 °C for 18–24 h before wrapping the stack in parafilm and plastic foil for the NMR measurements. All solid-state NMR measurements were carried out on a Bruker Avance 500 MHz spectrometer (Bruker Biospin, Karlsruhe, Germany) at 308 K, as previously reported. The oriented membrane samples were placed in the flat-coil probe such that the lipid bilayer normal was aligned parallel to the magnetic field. ^31P-NMR was used to check the quality of the lipid orientation in the samples, using a Hahn echo sequence with phase cycling. The 90° pulse length was 3.9 µs, the echo time was 30 µs, and 17 kHz ^1H SPINAL64 decoupling was used. ^1H-^15N cross-polarization experiments using a CP-MOIST pulse sequence were performed using a double-tuned probe with a low-E flat-coil resonator (3 mm × 9 mm cross-section), employing a ^1H and ^15N radiofrequency field strength of 65 kHz during the cross-polarization and 25 kHz ^1H SPINAL16 [41] decoupling during acquisition. A mixing time of 500 μs was used, and 10,000 to 30,000 scans were accumulated. The acquisition time was 10 ms, and the recycle time was 3 s. The ^15N chemical shift was referenced using the ^1H-NMR signal of water in the sample.

Substance | MIC [1] | % Hemolysis (human red blood cells) | MIC (relative antimicrobial activity) ([1]; relative activity over two Gram-positive and two Gram-negative strains) | % Helix (CD) [2] | OCD: orientational state of the helix [3] | NMR: orientational state of the helix [4]
GLFGKLIKKFGRKAISYAVKKARGKH [Ltc2a] | below 4 µg/mL | 100% | – | – | – | –
H-SMWSGMWRRKLKKLRNALKKKLKGE-OH [Ltc1] | below 4 µg/mL | – | +++ | 66% | Surface | Surface
